Reference: patent publication US20080274121A1, “Inhibition of Angiogenesis by Mithramycin” (priority 2007, published 2008)
Entries after “also recorded” stand apart in the source; their conditions may differ.

Assays:
[1] = tested on: Sp1 promoter; test: Sp1 promoter luciferase reporter in PANC-1 cells; assay type: cell-based, human; details: 100 μg/ml BVZ or 0.1 μM MIT
Description: (§1) FIG. 15. Effects of treatment with BVZ and MIT on Sp1 recruitment into the Sp1 promoter in human pancreatic cancer cells in vitro and in vivo. A, schematic structures of the minimal Sp1 promoters. The nucleotide positions and sequences of Sp1-binding sites and polymerase chain reaction forward and reverse primers flanking those sites for ChIP assay are shown. B, Sp1 and VEGF promoter reporter constructs were transfected into PANC-1 cells in triplicate and incubated for 12 hours. The cells were then incubated for another 24 hours in a medium alone or a medium containing 100 μg/ml BVZ or 0.1 μM MIT. Total protein lysates were harvested from the cell cultures for measurement of Sp1 and VEGF promoter activity using a luciferase assay kit. The relative Sp1 and VEGF promoter activities were assessed, and the activity in treated groups was expressed as the fold change of that in their respective control groups. C and D, chromatin was extracted from (C) PANC-1 cells that were incubated in vitro for 2 days in a medium alone or a medium containing 100 μg/ml BVZ or 0.1 μM MIT and (D) tumors formed by PANC-1 cells in nude mice that received treatment as described in FIG. 2A. […]
Sp1 promoter constructs and analysis of Sp1 promoter activity. […] The reporter luciferase activity was measured 48 hours later using a luciferase assay kit (Promega, Madison, Wis.). […]

[2] = tested on: Sp1 recruitment into the Sp1 promoter; test: ChIP assay, tumors formed by PANC-1 cells in nude mice; assay type: in vivo; details: tumors from treated mice (BVZ, MIT, B+M)
Description: as §1

[3] = tested on: BxPC3 cells; test: BxPC3 subcutaneous xenograft, tumor volume and body weight; assay type: in vivo, nude mice
From the text: FIG. 10. Dose-dependent antitumor effects of BVZ and MIT in xenograft models of human pancreatic cancer. […] C and D, the control mice and mice that received (C) BVZ and (D) MIT were weighed at the time of experiment termination, and the weights were expressed as the mean±SD.
FIG. 11. Synergistic antitumor effects of treatment with BVZ and MIT in xenograft models of human pancreatic cancer. […] C, representative tumor sizes in each group of BxPC3 model mice.
To determine whether this takes place, we treated pancreatic cancer in nude mice with BVZ, MIT, or a combination of the two (B+M). Specifically, we first performed dose-response experiments. We injected BxPC3 cells subcutaneously into nude mice.
Next, we performed experiments using both BxPC3 and PANC-1 tumor cell models in which we administered PBS, BVZ (25 μg), MIT (0.10 mg/kg), or B+M to a group of nude mice.

[4] = tested on: BxPC3 cells; test: Viable cell count in vitro, BxPC3; assay type: cell-based, human; details: 100 μg/ml BVZ
Description: FIG. 14. Effects of treatment with BVZ and MIT on the growth of and gene expression in human pancreatic cancer cells in vitro. (A) BxPC3 and (B) PANC-1 cells were incubated for 1 to 5 days in a medium alone or a medium containing 100 μg/ml BVZ. The viable cells were counted every 24 hours. C, PANC-1 cells were incubated for 6 to 48 hours in a medium alone or a medium containing 100 μg/ml BVZ. Total protein lysates were harvested from the cell cultures, and the level of Sp1, EGFR, and VEGF protein expression was determined using Western blot analysis. Equal protein-sample loading was monitored by probing the same membrane filter with an anti-glyceraldehyde-3-phosphate dehydrogenase antibody (GAPDH). D and E, PANC-1 cells were treated with MIT at concentrations ranging from 0.1 to 1.2 μM for 24 and 48 hours. (D) Cytotoxicity was assessed using the MTT assay, and (E) the level of gene expression was determined using Western blot analysis. NS, nonspecific.
Effects of treatment with BVZ and MIT on the growth of and gene expression in human pancreatic cancer cells. To further determine whether treatment with BVZ directly impacts gene expression in pancreatic cancer cells, we incubated PANC-1 and BxPC3 cells in a medium alone or a medium containing 100 μg/ml BVZ for 6 to 48 hours.

## bevacizumab [BVZ]
[1]
  Sp1 promoter activity: did not suppress Sp1 promoter activity
[2]
  Sp1 recruitment to its own promoter: significantly increase Sp1 recruitment to its own promoter
[3]; BVZ 25 μg, MIT 0.10 mg/kg, or B+M
  antitumor activity at low dose: slight antitumor effects; also recorded: marginal antitumor activity
[3]; BVZ 25, 50, 100 μg, MIT 0.1, 0.2, 0.4 mg/kg, i.p. twice a week
  antitumor activity, dose-response: suppressed human pancreatic cancer growth
[3]; BVZ alone, 25-100 μg
  body weight: no discernable effect on body weight
[4]
  cell growth in vitro: did not affect the growth
